Source: patent US6008356A, “Pharmaceutically available protoberberine salts derivatives, and protoberberine salts derivatives, and protoberberine derivatives and salts thereof” (priority 1998, dated 1999)
In brackets after ≈: the same amount, converted by molar mass. Read-outs that look alike come from different tables or passages of the source. One block for each compound: values may come before it.

How the values were obtained:
C. albicans ATCC 28838 = experiment: MIC; format: cell-based, Candida albicans; settings: Candida albicans, ATCC28838
C. albicans IFO 1385 = experiment: MIC; format: cell-based, Candida albicans; settings: Candida albicans, IFO1385
C. albicans KCTC 1940 = experiment: MIC; format: cell-based, Candida albicans; settings: Candida albicans, KCTC1940
C. albicans ATCC 11651 = experiment: MIC; format: cell-based, Candida albicans; settings: Candida albicans, ATCC11651
C. albicans OY 019 = experiment: MIC; format: cell-based, Candida albicans; settings: Candida albicans, OY019
C. glulliermendi = experiment: MIC; format: cell-based; settings: C. glulliermendi; read-out: MIC
C. parapsilosis = experiment: MIC; format: cell-based; settings: Lodderomyces parapsilosis; C. parapsilosis; read-out: MIC
Epidermophyton floccosum = experiment: Antifungal efficacy of creamy formulation against local fungal skin infection; format: in vivo, mouse (SKH/1, hairless, male); settings: topical
Protocol: Specific pathogen free SKH/1 male mouse(Hairless) of which weight is 30-35 g and age is 5 weeks, was reared with sterilized water and feed for 12 night/day in the condition of 21-23° C. and of 50% relative humidity. Five mice were allocated by each group. After skin infection, each mouse was taken in separate cage. The strain of microorganism for infection(Epidermophyton floccosum) was cultivated on a flat medium of SDA(Sabouraud Dextrose Agar) for 5-7 days and after confirmation of macrocomidia, 3 ml of RPMI (Rosewell Park Memorial Institute) 1640 media per each flat medium was added thereto and then scraped well using loop to remove hyphae from media. The floating liquid was suspended briefly and then diluted with RPMI 1640 media to adjust the concentration of hyphae to 2×10^6 CFU/ml. Mouse was anesthetized and marked on back site(lumbosacral area) in a shape of circle of which diameter is 1.5 cm. Then, the inner part of marked skin was scratched with sand paper. The scratched part was covered with a filter paper to preserve inoculated microorganism for a long time and thereby stimulating the skin continuously. 0.2 ml of fungus solution of which concentration is adjusted as described above, was inoculated between the skin and filter paper. 5 Days after the inoculation, the filter paper was removed and the infection of skin was examined. The test formulations, 0.5% creamy formulations of the compounds Nos. 62 and 85, 1.0% creamy formulation of Terbinafine(Lamisile cream) and a placebo was applied on the infected areas in a same amount once a day for 5 days. The clinical evaluation on the change of the infected area in 5 days after the inoculation was performed and expressed numerically from 0 to 4. The daily change of the infected area was checked every day. The result of each group was compared with each other.
1: Mild erythema or small number of skin eruption
2: Well-demarcated erythema with scales or mild skin eruption of infected area
3: Wide area of marked skin eruption, scales, swelling or severe skin eruption with partial swelling and scales
4: The same as those of control, or severe skin eruption in entire lesion
The result was calculated as follows;
T: Average score of clinical evaluation in drug treated area
K: Average score of clinical evaluation in placebo control group
Moreover, the antifungal efficacies of the 0.5% creamy formulation of the compounds Nos. 29, 35, 60, 62, 63 and 85, and 1% creamy formulation of Terbinafme (Lamisil cream), which are measured by applying the above formulations on the skin infected with Epidermophyton floccosum of mouse which is the standard animal for the test of local fungal skin infection, i.e, Specific Pathogen Free SKH/1, are described in the following Table 4.

C. albicans U.K. = experiment: MIC; format: cell-based; settings: Candida albicans; C. albicans U.K.; read-out: MIC
C. albicans OY 003 = experiment: MIC; format: cell-based, Candida albicans; settings: Candida albicans, OY003
C. glabrata = experiment: MIC; format: cell-based; settings: Nakaseomyces glabratus; C. glabrata; read-out: MIC
C. albicans ATCC 10231 = experiment: MIC; format: cell-based; settings: Candida albicans, ATCC10231; C. albicans ATCC 10231; read-out: MIC
E. floccosum = experiment: MIC; format: cell-based, Epidermophyton floccosum; settings: Epidermophyton floccosum
C. krusei = experiment: MIC; format: cell-based; settings: Pichia kudriavzevii; C. krusei; read-out: MIC
[1] = C. albicans ATCC 28838, read-out: MIC
[2] = C. albicans IFO 1385, read-out: MIC
[3] = C. albicans KCTC 1940, read-out: MIC
[4] = C. albicans ATCC 11651, read-out: MIC
[5] = C. albicans OY 019, read-out: MIC
[6] = C. albicans OY 003, read-out: MIC

MIC (C. albicans ATCC 28838; [1]): 1.56 mg/L
MIC (C. albicans IFO 1385; [2]): 6.25 mg/L
MIC (C. albicans KCTC 1940; [3]): 0.78 mg/L
MIC (C. albicans ATCC 11651; [4]): 0.78 mg/L
MIC (C. albicans OY 019; [5]): 1.56 mg/L
MIC (C. glulliermendi): 12.5 mg/L
MIC (C. parapsilosis): > 100 mg/L
MIC (C. albicans U.K.): 12.5 mg/L
MIC (C. albicans OY 003; [6]): 0.78 mg/L
MIC (C. glabrata): > 100 mg/L
MIC (C. albicans ATCC 10231): 6.25 mg/L
MIC (E. floccosum; E. floccosum, read-out: MIC): 12.5 mg/L
MIC (C. krusei): 3.12 mg/L
Compound: COc1ccc2c(Cc3ccc(-c4ccccc4)cc3)c3[n+](cc2c1OC)CCc1cc2c(cc1-3)OCO2 [compound 35, 13-(4-phenylbenzyl)berberine chloride]
Efficacy (%) 0 day later (Epidermophyton floccosum; 0.5% cream): 0%
Efficacy (%) 1 day later (Epidermophyton floccosum; 0.5% cream): 36.0%
Efficacy (%) 2 day later (Epidermophyton floccosum; 0.5% cream): 57.9%
Efficacy (%) 3 day later (Epidermophyton floccosum; 0.5% cream): 68.4%
Efficacy (%) 4 day later (Epidermophyton floccosum; 0.5% cream): 72.2%
Efficacy (%) 5 day later (Epidermophyton floccosum; 0.5% cream): 74.0%
Efficacy (%) 6 day later (Epidermophyton floccosum; 0.5% cream): 75.4%
Efficacy (%) 7 day later (Epidermophyton floccosum; 0.5% cream): 76.8%

Compound: CN(C/C=C/C#CC(C)(C)C)Cc1cccc2ccccc12 [Terbinabin, Terbinafine, reference compound]
Efficacy (%) 0 day later (Epidermophyton floccosum; 1.0% cream): 0%
Efficacy (%) 1 day later (Epidermophyton floccosum; 1.0% cream): 40.0%
Efficacy (%) 2 day later (Epidermophyton floccosum; 1.0% cream): 57.9%
Efficacy (%) 3 day later (Epidermophyton floccosum; 1.0% cream): 68.4%
Efficacy (%) 4 day later (Epidermophyton floccosum; 1.0% cream): 70.2%
Efficacy (%) 5 day later (Epidermophyton floccosum; 1.0% cream): 71.4%
Efficacy (%) 6 day later (Epidermophyton floccosum; 1.0% cream): 73.4%
Efficacy (%) 7 day later (Epidermophyton floccosum; 1.0% cream): 75.7%

Compound: CCC(C)n1ncn(-c2ccc(N3CCN(c4ccc(OCC5COC(Cn6cncn6)(c6ccc(Cl)cc6Cl)O5)cc4)CC3)cc2)c1=O (stereo not drawn) [Itraconazole, reference compound]
MIC (C. albicans ATCC 28838): > 100 mg/L
MIC (C. albicans IFO 1385): > 100 mg/L
MIC (C. albicans KCTC 1940): > 100 mg/L
MIC (C. albicans ATCC 11651): > 100 mg/L
MIC (C. albicans OY 019): > 100 mg/L
MIC (C. albicans OY 003): > 100 mg/L
MIC (E. floccosum): 50 mg/L (≈ 70.9 µM)

MIC (C. albicans ATCC 28838; [1]): 3.12 mg/L
MIC (C. albicans IFO 1385; [2]): 12.5 mg/L
MIC (C. albicans KCTC 1940; [3]): 6.25 mg/L
MIC (C. albicans ATCC 11651; [4]): 3.12 mg/L
MIC (C. albicans OY 019; [5]): 6.25 mg/L
MIC (C. albicans OY 003; [6]): 6.25 mg/L
Compound: COc1ccc2c(Cc3ccc(C)c(C)c3)c3[n+](cc2c1OC)CCc1cc2c(cc1-3)OCO2 [compound 18, 13-(3,4-dimethylbenzyl)berberine chloride]

MIC (C. albicans ATCC 28838; [1]): 0.78 mg/L
MIC (C. albicans IFO 1385; [2]): 3.12 mg/L
MIC (C. albicans KCTC 1940; [3]): 1.56 mg/L
MIC (C. albicans ATCC 11651; [4]): 1.56 mg/L
MIC (C. albicans OY 019; [5]): 1.56 mg/L
MIC (C. albicans OY 003; [6]): 1.56 mg/L
Compound: COc1ccc2c(Cc3ccc(OC(F)(F)F)cc3)c3[n+](cc2c1OC)CCc1cc2c(cc1-3)OCO2 [compound 31, 13-(4-trifluoromethoxybenzyl) berberine chloride]

MIC (C. albicans ATCC 28838; [1]): 3.12 mg/L
MIC (C. albicans IFO 1385; [2]): 25 mg/L
MIC (C. albicans KCTC 1940; [3]): 12.5 mg/L
MIC (C. albicans ATCC 11651; [4]): 12.5 mg/L
MIC (C. albicans OY 019; [5]): 12.5 mg/L
MIC (C. albicans OY 003; [6]): 6.25 mg/L
Compound: COc1ccc2c(Cc3cccc(Oc4ccccc4)c3)c3[n+](cc2c1OC)CCc1cc2c(cc1-3)OCO2 [compound 58, 13-(3-phenoxybenzyl)berberine chloride]
